In paper PMC9763021, “Comprehensive Assessment of Biomolecular Interactions of Morpholine-Based Mixed Ligand Cu(II) and Zn(II) Complexes of 2,2′-Bipyridine as Potential Anticancer and SARS-CoV-2 Agents: A Synergistic Experimental and Structure-Based Virtual Screening” (Bioinorganic Chemistry and Applications, 2022):

Assays:
CT-DNA = test: DNA binding by UV-visible absorption titration; design: species or system calf thymus; conditions: for % H (hypochromism) / Δλ nm (red shift on DNA binding): Tris-HCl pH 7.4, 25°C; for ∆Gb° BH-I: from Kb BH-I; for ∆Gb° BH-I / ∆Gb° (BH-II) / ∆Gb° SK-I / ∆Gb° (SK-II) / ∆Gb° WS-I / ∆Gb° (WS-II): T = 298 K; for ∆Gb° (BH-II): from Kb BH-II; for ∆Gb° SK-I: from Kb SK-I; for ∆Gb° (SK-II): from Kb SK-II; for ∆Gb° WS-I: from Kb WS-I; for ∆Gb° (WS-II): from Kb WS-II
Experimental: The DNA-binding experiment was conducted by an electronic absorption spectrophotometer by raising the DNA concentration from zero to 50 μM to the given concentration of all samples (50 μM) in Tris-HCl buffer solution (pH: 7.4) at 25°C [6, 28, 31, 32].
UV-visible absorption titration is the main imperative approach to observing the tendency of test substances to bind with deoxyribonucleic acid. The approach is commonly utilized to evaluate the potency and mode of binding of the test substances with deoxyribonucleic acid. The essential information regarding conformational change, the effectiveness of the DNA-substance binding, and the negatively charged phosphate on deoxyribonucleic acid are neutralized via exterior contact, and intercalation through interactions between π-π stacks is presented by DNA binding towards metal complexes. All complexes (1a-2a), including the free ligand (HL), were measured in the presence and absence of deoxyribonucleic acid by ultraviolet-visible spectrophotometric titrations under Tris-HCl buffer solution (pH: 7.4) at room temperature (Figure 2). In this case, all samples were exposed to two prominent electronic absorption bands at 260 nm and 336–343 nm, consequent to the π-π^∗ transition of the phenyl chromophore and MLCT, respectively. While the amount of DNA concentration rises in each test compound, the interaction of the chemical substance with DNA base pairs generates noticeable alterations in the intraligand charge transfer bands' strength and wavelength. […] The Kb findings were measured for all samples by the Wolfe–Shimmer equations […] by methods I and II, respectively, from the findings of the slope divided by the intercept in the linear regression plots of [DNA]/(ɛa − ɛf) vs. [DNA] and the intercept divided by intercept slope in the linear regression plot of (ɛb − ɛf)/(ɛa − ɛf) vs. 1/[DNA] M^−1 (Figure S17), and the Kb results for each sample were in the subsequent sequence: (1a) > (2a) > (HL). […] It is concluded that the morpholine linked ligand's coplanarity and 2,2′-bipyridine aromatic system complexation with the metal center, which promotes the complex to infiltrate DNA base pairs smoothly, and large aromatic systems may also assist the complex to penetrate the phosphate backbone's core deeply, and those substances may permit the complex to freely penetrate deep into the deoxyribonucleic acid double helix. In addition, the observed isosbestic points are found at 256 and 276 nm for free ligand and complexes (1a-2a), respectively. […] The Wolfe–Shimmer (1 and 2), Benesi–Hildebrand (3 and 4), and Sakthi–Krause equations (5 and 6) were supported to evaluate Kb results for all samples (Table 1). The Benesi–Hildebrand binding constant (Kb) values were measured using equations (3) and (4) by methods I and II, respectively, from the intercept divided by slope in the linear regression plot of [1/(Ax − A0)] vs. {1/[DNA]} M^−1 and the intercept divided by slope in the linear regression plot of [(Amax − A0)/(Ax − A0)] vs. {1/[DNA]} M^−1 (Figure S18). The Kb values were estimated using Sakthi–Krause equations (5) and (6) by methods I and II, respectively, with the intercept divided by slope in the linear regression plot of [(A/(A0 − A)] vs. {1/[DNA]} M^−1 (Figure S19) and the antilogarithm value of the intercept in the linear regression plot of log {1/[DNA]} vs. log [(A/(A0 − A)]M^−1 (Figure S20). In addition, the Van't Hoff equation (7) was supported to obtain the ∆Gb° values for DNA interaction, and equation (8) was supported to measure the % of chromicity for all substances (Table 1). The overall measured Kb findings were in the subsequent sequence: (1a) > (2a) > (HL). In these cases, the observed ∆Gb° values were reported in the range of −19.91 to −29.13, −21.55 to −26.04 and −22.50 to –25.22 kJ·mol^−1, respectively (Table 1). In these cases, the complex (1a) had the highest DNA-binding efficacy among all binding results. […]

BSA = BSA (Bos taurus, UniProt P02769); test: FRET computation, donor (BSA) - acceptor (compound); type: binding, bovine; design: kET (rate of energy transfer): unit not given here; conditions: for J, spectral overlap integral: BSA donor, compound acceptor; for B (brightness of complex-BSA system): free BSA = 6,573.60
Bacillus cereus = test: Agar disc diffusion, strain G; type: cell-based; design: (inhibition %): concentration or dose not given beside the values; conditions: for diameter of the clear zone inhibition: control = 6 mm
Experimental: (§1) In-vitro antimicrobial properties were evaluated for all samples by the agar disc diffusion method towards different fungal and bacterial strains. Additionally, the reported inhibition zone values were comparatively analyzed with the standard antifungal drugs ketoconazole and amphotericin B as well as the standard antibiotic medications streptomycin and amikacin.
(§2) The current research has a curious focus on the in vitro antimicrobial properties of biological systems because these studies are crucial for developing effective antibacterial and antifungal medications. […] It can also be spelled out based on the chelation theory proposed by Overtone and Tweedy. Chelation theory points out that the partial exchanging of the positive charge of the metal center with donor moieties, and overlap of the ligand orbitals will reduce the greater degree of the metal ion's polarity, which ultimately rises the delocalization of π and d electrons over the full chelated ring system. By raising the size of the metal ion due to the retarding of polarization, chelation may also enhance the complexes' lipophilic characteristics, which further stimulate the lipid membrane permeability and break down the bacteria' enzymes responsible for cell wall formation, therefore slowing down the regular cell processes. By preventing the production of cell walls/proteins/DNA, including by obstructing folate metabolism and the cytoplasmic membrane, antimicrobial drugs frequently either fully eliminate microbes or only prevent their cell growth. Additionally, the samples' mode of action may be employed in disrupting the cell's respiration process by forming an H-bond during the morpholine-fused iminic group coordinated with the active metal center of its components, inhibiting proliferation of the cell. […] The difference in the antimicrobial efficacy of some of the compounds towards various microorganisms influences on the impermeability of the cells of the germs or the diversity of ribosomes of the microbes. The % of the inhibition of all substances is estimated from (45) (Table 9).
(§3) (A, B, C, D, and E are represented as gram negative bacteria species Escherichia coli, Salmonella enteric serovar typhi, Salmonella enteric serovar typhi, Pseudomonas aeruginosa, and Shigella flexneri, respectively. F & G are denoted as gram positive bacteria species Staphylococcus aureus and Bacillus cereus. H, I, and J are represented as fungal strains Aspergillus niger, Candida albicans, and Mucor indicus. Standard drugs for bacterial strains: Amikacin & Streptomycin Standard drugs for fungal strains: Ketoconazole and Amphotericin B. [Control (DMSO) = 6 mm].(44) Inhibition %=T–C/T×100, where T and C are represented as the diameter of microbial growth of the sample plates and the control plate (6 mm), respectively. Error limits ±2.5–5.0% (P ≤ 0.05).

Mucor indicus = test: Agar disc diffusion, strain J; type: cell-based; design: (inhibition %): concentration or dose not given beside the values; conditions: for diameter of the clear zone inhibition: control = 6 mm
Experimental: as §1, §2, §3

Structure (SMILES)	% H (hypochromism) (CT-DNA) [%]	Δλ nm (red shift on DNA binding) (CT-DNA) [nm]	∆Gb° BH-I (CT-DNA) [kcal/mol]	∆Gb° (BH-II) (CT-DNA) [kcal/mol]	∆Gb° SK-I (CT-DNA) [kcal/mol]	∆Gb° (SK-II) (CT-DNA) [kcal/mol]	∆Gb° WS-I (CT-DNA) [kcal/mol]	∆Gb° (WS-II) (CT-DNA) [kcal/mol]	E (efficiency of energy transfer) (BSA)	R0 (Förster radius) (BSA) [nm]	kET (rate of energy transfer) (BSA)	r (donor-acceptor separation) (BSA) [nm]	J, spectral overlap integral (BSA)	B (brightness of complex-BSA system) (BSA) [M⁻¹ cm⁻¹]	(inhibition %) (Bacillus cereus) [%]	diameter of the clear zone inhibition (Bacillus cereus) [mm]	(inhibition %) (Mucor indicus) [%]	diameter of the clear zone inhibition (Mucor indicus) [mm]
[O-]c1ccccc1N=Cc1ccc(N2CCOCC2)cc1.[O-]c1ccccc1N=Cc1ccc(N2CCOCC2)cc1.[Zn+2].c1ccc(-c2ccccn2)nc1 [(2a), [Zn(L)2(bpy)]]	43.15	05	-5.925	-5.937	-5.664	-5.868	-5.8114	-5.774	0.5615	2.2770	10.4206	2.1851	0.5425 × 10^−14 (LM^−1·cm^3)	4642.53	57	14	60	15
[Cu+2].[O-]c1ccccc1N=Cc1ccc(N2CCOCC2)cc1.[O-]c1ccccc1N=Cc1ccc(N2CCOCC2)cc1.c1ccc(-c2ccccn2)nc1 [(1a), [Cu(L)2(bpy)]]	52.18	07	-6.224	-5.985	-5.772	-6.028		-5.918	0.5769	2.4090	13.6340	2.2877	0.7607 × 10^−14 (LM^−1·cm^3)	5187.78	54	13	50	12
Oc1ccccc1N=Cc1ccc(N2CCOCC2)cc1 [(HL), 2-(4-morpholinobenzylideneamino)phenol]	37.13	04	-5.151	-5.851	-5.378	-5.779	-5.7	-5.712	0.3462	2.4400	5.2957	2.7127	0.8215 × 10^−14 (LM^−1·cm^3)	5339.79	33	09	45	11
